Measured values reported in ChEMBL document CHEMBL5257080, “Optimization of physicochemical properties of pyrrolidine GPR40 AgoPAMs results in a differentiated profile with improved pharmacokinetics and reduced off-target activities” (Bioorg Med Chem, 2023).
Values belong to the molecule of their own block, whether it stands above or below them. Activity calls are given as the source filed them. The calls are words filed in the database; no cut-off is given here.

Experiments:
[1] = molecular target: T1, Free fatty acid receptor 1 (Homo sapiens, UniProt O14842); test: Positive allosteric modulation of human GPR40 by calcium based FLIPR analysis
[2] = Tmax in rat at 80 mg/kg qd; assay type: ADME, organism-based; conditions: in vivo
[3] = Cmax in rat at 40 mg/kg bid; assay type: ADME, organism-based; design: dose 40 mg/kg; conditions: in vivo
[4] = AUC (0 to 24 hrs) in rat at 240 mg/kg qd; assay type: ADME, organism-based; design: dose 240 mg/kg; conditions: in vivo
[5] = Cmax in rat at 800 mg/kg qd; assay type: ADME, organism-based; design: dose 800 mg/kg; conditions: in vivo
[6] = AUC (0 to 24 hrs) in rat at 800 mg/kg qd; assay type: ADME, organism-based; design: dose 800 mg/kg; conditions: in vivo
[7] = Permeability of compound across apical to basolateral side in dog MDCK cells; assay type: ADME, cell-based, Canis lupus familiaris; conditions: read-out: permeability
[8] = Cmax in rat at 240 mg/kg qd; assay type: ADME, organism-based; design: dose 240 mg/kg; conditions: in vivo
[9] = AUC (0 to 24 hrs) in rat at 80 mg/kg qd; assay type: ADME, organism-based; design: dose 80 mg/kg; conditions: in vivo
[10] = Cmax in rat at 80 mg/kg qd; assay type: ADME, organism-based; design: dose 80 mg/kg; conditions: in vivo
[11] = Tmax in rat at 800 mg/kg qd; assay type: ADME, organism-based; conditions: in vivo
[12] = Toxicity in Sprague-Dawley rat assessed as hypoglycemia at 80 mg/kg, po measured for 24 hrs by glucometer analysis; assay type: organism-based; conditions: in vivo
[13] = Tmax in rat at 240 mg/kg qd; assay type: ADME, organism-based; conditions: in vivo
[14] = Drug concentration in mouse plasma measured after 3 hrs; assay type: ADME
[15] = Metabolic stability in mouse liver microsome assessed as parent compound remaining after 10 mins; assay type: ADME; conditions: liver microsomes, read-out: Stability
Mus musculus = test: Anti-hyperglycemic activity against mouse assessed as reduction in plasma glucose level at 3 mg/kg, po by OGTT analysis; assay type: functional, organism-based
[16] = molecular target: Free fatty acid receptor 1 (Mus musculus, UniProt Q76JU9); test: Positive allosteric modulation of mouse GPR40
[17] = molecular target: T2, Peroxisome proliferator-activated receptor gamma (Homo sapiens, UniProt P37231); test: Transactivation of PPARgamma (unknown origin)
T2 sequence (P37231 whole entry): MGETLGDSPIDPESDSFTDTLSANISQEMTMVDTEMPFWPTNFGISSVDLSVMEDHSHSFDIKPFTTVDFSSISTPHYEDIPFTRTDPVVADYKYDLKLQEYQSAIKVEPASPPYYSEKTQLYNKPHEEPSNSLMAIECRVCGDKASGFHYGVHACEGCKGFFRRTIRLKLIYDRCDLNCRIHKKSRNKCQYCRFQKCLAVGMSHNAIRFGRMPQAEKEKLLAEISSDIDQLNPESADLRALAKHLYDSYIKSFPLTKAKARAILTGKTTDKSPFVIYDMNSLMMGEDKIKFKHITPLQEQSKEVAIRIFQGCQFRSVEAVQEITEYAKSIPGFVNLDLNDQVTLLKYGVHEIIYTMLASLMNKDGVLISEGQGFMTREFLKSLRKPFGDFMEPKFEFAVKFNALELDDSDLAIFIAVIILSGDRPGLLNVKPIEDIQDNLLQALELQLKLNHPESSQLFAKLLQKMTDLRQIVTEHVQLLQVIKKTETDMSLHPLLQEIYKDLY

[18] = Lipophilicity, logD of compound; assay type: physicochemical; conditions: octanol/water
[19] = Toxicity in rat assessed as change in spontaneous locomotor activity; conditions: in vivo
[20] = molecular target: T1, Free fatty acid receptor 1; test: Positive allosteric modulation of human GPR40 expressed in HEK293 cells assessed as maximum efficacy relative to control; assay type: cell-based; conditions: filed as positive allosteric modulator
[21] = Toxicity in rat; conditions: in vivo
[22] = Toxicity in rat assessed as change in heart rate; conditions: in vivo
[23] = molecular target: T1, Free fatty acid receptor 1; test: Positive allosteric modulation of human GPR40 expressed in HEK293 cells; assay type: cell-based
[24] = Cmax in mouse at 1 mg/kg; assay type: ADME, organism-based; design: dose 1 mg/kg; conditions: in vivo
[25] = AUC (0-7hrs) in mouse at 1 mg/kg; assay type: ADME, organism-based; design: dose 1 mg/kg; conditions: in vivo

T1 sequence (O14842 whole entry): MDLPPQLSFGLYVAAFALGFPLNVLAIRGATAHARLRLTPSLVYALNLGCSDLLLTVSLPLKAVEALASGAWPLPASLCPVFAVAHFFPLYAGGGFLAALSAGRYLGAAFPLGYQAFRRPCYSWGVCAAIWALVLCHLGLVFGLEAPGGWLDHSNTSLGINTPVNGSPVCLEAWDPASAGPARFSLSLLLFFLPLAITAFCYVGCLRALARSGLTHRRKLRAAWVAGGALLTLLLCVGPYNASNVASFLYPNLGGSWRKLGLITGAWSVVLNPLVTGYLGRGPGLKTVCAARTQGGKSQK
Sequence of Free fatty acid receptor 1 (Mus musculus, UniProt Q76JU9) (Q76JU9 whole entry): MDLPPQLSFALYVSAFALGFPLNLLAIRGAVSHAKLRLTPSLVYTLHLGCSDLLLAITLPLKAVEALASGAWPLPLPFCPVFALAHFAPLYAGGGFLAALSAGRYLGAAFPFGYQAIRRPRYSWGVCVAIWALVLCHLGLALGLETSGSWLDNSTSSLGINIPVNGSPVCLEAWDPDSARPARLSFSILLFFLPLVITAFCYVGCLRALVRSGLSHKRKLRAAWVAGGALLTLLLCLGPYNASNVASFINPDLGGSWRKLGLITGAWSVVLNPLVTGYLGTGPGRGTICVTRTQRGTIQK

EC50 [1]: 180 nM
SMILES: COCCOCO[C@H]1CN(c2ccc(O[C@@H]3CCN(c4cc(OC)ncc4Cl)C[C@H]3C)cc2)[C@@H](CC(=O)O)[C@@H]1C

Tmax [2]: 4 h
Cmax [3]: 30 µM
AUC [4]: 1080 µM·h
Cmax [5]: 65 µM
AUC [6]: 1430 µM·h
Papp A→B [7]: 5.7 ×10⁻⁶ cm/s
Cmax [8]: 30 µM
AUC [9]: 243 µM·h
Cmax [10]: 30 µM
Tmax [11]: 48 h
Tmax [13]: 6 h
SMILES: COc1ccc(F)c(-c2ccc(Cc3ccc(N4N=C(C(F)(F)F)[C@@H](C)[C@@H]4CC(=O)O)cc3)c(C)c2)c1
Activity [12]: Non-Toxic

EC50 [1]: 430 nM
SMILES: CCOc1ccc(F)c(N2CC[C@@H](Oc3ccc(N4C[C@H](C(F)(F)F)C[C@@H]4CC(=O)O)cc3)[C@H](CC)C2)c1

EC50 [1]: 430 nM
SMILES: CCOc1ccc(F)c(N2CC[C@@H](Oc3ccc(N4C[C@H](C(F)(F)F)C[C@@H]4CC(=O)O)cc3)[C@H](CC(C)C)C2)c1

concentration at 3 h [14]: 0.156 µM
remaining at 10 min [15]: 97%
EC50 [1]: 29 nM
EC50 [16]: 48 nM
EC50 [17]: > 48000 nM
SMILES: COc1cc(N2CC[C@@H](Oc3ccc(N4C[C@H](F)[C@@H](C)[C@@H]4CC(=O)O)cc3)[C@H](C)C2)c(Cl)cn1
Activity (Mus musculus): inactive

EC50 [17]: > 48000 nM
SMILES: COc1cc(N2CC[C@@H](Oc3ccc(N4C[C@H](F)[C@@H](OC)[C@@H]4CC(=O)O)cc3)[C@H](C)C2)c(Cl)cn1

EC50 [17]: 12000 nM
SMILES: CCOc1ccc(F)c(N2CC[C@@H](Oc3ccc(N4C[C@H](OC)C[C@@H]4CC(=O)O)cc3)[C@H](C)C2)c1

logD [18]: 2.44
EC50 [17]: > 47000 nM
SMILES: CCOc1ccc(F)c(N2CCC(Oc3ccc(N4C[C@H](Oc5ccccc5)C[C@@H]4CC(=O)O)cc3)CC2)c1

Emax [20]: 97%
SMILES: COc1ccc(F)c(-c2ccc(Cc3ccc(N4C[C@H](C(F)(F)F)C[C@@H]4CC(=O)O)cc3)c(C)c2)c1
Activity [19]: Non-Toxic
Activity [21]: Toxic
Activity [22]: Non-Toxic
Activity [12]: Non-Toxic

EC50 [17]: > 48000 nM
SMILES: CCOc1ccc(F)c(N2CC[C@@H](Oc3ccc(N4C[C@H](C(F)(F)F)C[C@@H]4CC(=O)O)cc3)[C@H](C)C2)c1

EC50 [1]: 190 nM
SMILES: CCCCCO[C@H]1CN(c2ccc(O[C@@H]3CCN(c4cc(OC)ncc4Cl)C[C@H]3C)cc2)[C@@H](CC(=O)O)[C@@H]1C

EC50 [17]: > 50000 nM
EC50 [23]: 4100 nM
SMILES: COc1ccc(F)c(N2CCC(Oc3ccc(N4CCC[C@H]4CC(=O)O)cc3)CC2)c1

Cmax [24]: 1.4 µM
AUC(0-t) [25]: 2.9 µM·h
logD [18]: 1.82
EC50 [1]: 51 nM
EC50 [16]: 18 nM
EC50 [17]: > 47000 nM
SMILES: CCOc1ccc(F)c(N2CC[C@@H](Oc3ccc(N4C[C@H](OCCCOC)[C@@H](C)[C@@H]4CC(=O)O)cc3)[C@H](C)C2)c1

Cmax [24]: 0.5 µM
AUC(0-t) [25]: 0.5 µM·h
EC50 [17]: > 48000 nM
SMILES: CCOc1ccc(F)c(N2CC[C@@H](Oc3ccc(N4C[C@H](OC)[C@@H](C)[C@@H]4CC(=O)O)cc3)[C@H](C)C2)c1

EC50 [1]: 220 nM
SMILES: CCOc1ccc(F)c(N2CC[C@@H](Oc3ccc(N4C[C@](C)(OC)C[C@@H]4CC(=O)O)cc3)[C@H](C)C2)c1

EC50 [17]: > 48000 nM
SMILES: CCOc1ccc(F)c(N2CC[C@@H](Oc3ccc(N4CC(C)(C)C[C@@H]4CC(=O)O)cc3)[C@H](C)C2)c1

EC50 [1]: 230 nM
EC50 [17]: > 48000 nM
SMILES: CCOc1ccc(F)c(N2CC[C@@H](Oc3ccc(N4C[C@H](c5ccccc5)C[C@@H]4CC(=O)O)cc3)[C@H](C)C2)c1

logD [18]: 1.3
SMILES: CCOc1ccc(F)c(N2CC[C@@H](Oc3ccc(N4C[C@H](OCCCOC)C[C@@H]4CC(=O)O)cc3)[C@H](C)C2)c1

EC50 [17]: > 50000 nM
EC50 [23]: 1400 nM
SMILES: COc1ccc(F)c(N2CCC(Oc3ccc(N4CCC[C@@H]4CC(=O)O)cc3)CC2)c1

EC50 [17]: > 48000 nM
SMILES: COc1cc(N2CC[C@@H](Oc3ccc(N4C[C@H](C(F)(F)F)[C@@H](C)[C@@H]4CC(=O)O)cc3)[C@H](C)C2)c(Cl)cn1

logD [18]: 0.81
EC50 [17]: > 47000 nM
SMILES: CCOc1ccc(F)c(N2CCC(Oc3ccc(N4C[C@H](OCCCOC)C[C@@H]4CC(=O)O)cc3)CC2)c1

EC50 [1]: 120 nM
SMILES: COc1cc(N2CC[C@@H](Oc3ccc(N4C[C@H](OCCCC#N)[C@@H](C)[C@@H]4CC(=O)O)cc3)[C@H](C)C2)c(Cl)cn1

logD [18]: 2.15
EC50 [17]: > 47000 nM
SMILES: CCOc1ccc(F)c(N2CCC(Oc3ccc(N4C[C@H](Oc5cccc(OC)c5)C[C@@H]4CC(=O)O)cc3)CC2)c1

EC50 [1]: 740 nM
SMILES: CCOc1ccc(F)c(N2CC[C@@H](Oc3ccc(N4C[C@H](C(F)(F)F)C[C@@H]4CC(=O)O)cc3)[C@H](Cc3ccccc3)C2)c1

EC50 [1]: 110 nM
EC50 [17]: > 48000 nM
SMILES: COc1cc(N2CC[C@@H](Oc3ccc(N4CC[C@@H](C)[C@@H]4CC(=O)O)cc3)[C@H](C)C2)c(Cl)cn1
